Measurements as given in ChEMBL document CHEMBL3822364, “Synthesis, characterization and antimicrobial activity of novel Schiff base tethered boronate esters of 1,2-O-isopropylidene-α-d-xylofuranose” (2016).
Converted amounts (≈) assume the structure as drawn.

Assays:
Streptococcus mutans [1] = assay: Antibacterial activity against Streptococcus mutans MTCC 497 assessed as zone of inhibition at 100 ug/well measured after 24 hrs by agar well diffusion method; type: functional; details: MTCC 497, 24 h, read-out: DIZ
Micrococcus luteus [2] = assay: Antibacterial activity against Micrococcus luteus MTCC 106 assessed as zone of inhibition at 100 ug/well measured after 24 hrs by agar well diffusion method; type: functional; details: MTCC 106, 24 h, read-out: DIZ
Staphylococcus aureus [3] = assay: Antibacterial activity against Staphylococcus aureus MTCC 3160 assessed as zone of inhibition at 100 ug/well measured after 24 hrs by agar well diffusion method; type: functional; details: MTCC 3160, 24 h, read-out: DIZ
Salmonella paratyphi [4] = assay: Antibacterial activity against Salmonella paratyphi assessed as zone of inhibition at 100 ug/well measured after 24 hrs by agar well diffusion method; type: functional, Salmonella enterica subsp. enterica serovar Paratyphi A; details: Salmonella enterica, read-out: DIZ
Salmonella typhi [5] = assay: Antibacterial activity against Salmonella typhi assessed as zone of inhibition at 100 ug/well measured after 24 hrs by agar well diffusion method; type: functional, Salmonella enterica subsp. enterica serovar Typhi; details: Salmonella enterica, read-out: DIZ
Klebsiella pneumoniae [6] = assay: Antibacterial activity against Klebsiella pneumoniae MTCC 3384 assessed as zone of inhibition at 100 ug/well measured after 24 hrs by agar well diffusion method; type: functional; details: MTCC 3384, 24 h, read-out: DIZ
Candida albicans [7] = assay: Antifungal activity against Candida albicans MTCC 3017 assessed as zone of inhibition at 100 ug/well measured after 48 hrs by agar well diffusion method; type: functional; details: MTCC 3017, 48 h, read-out: DIZ
Aspergillus fumigatus [8] = assay: Antifungal activity against Aspergillus fumigatus MTCC 343 assessed as zone of inhibition at 100 ug/well measured after 48 hrs by agar well diffusion method; type: functional; details: MTCC 343, 48 h, read-out: DIZ
Streptococcus mutans [9] = assay: Antibacterial activity against Streptococcus mutans MTCC 497 measured after 24 hrs by NCCL protocol based broth dilution method; type: functional; details: MTCC 497, 24 h
Micrococcus luteus [10] = assay: Antibacterial activity against Micrococcus luteus MTCC 106 measured after 24 hrs by NCCL protocol based broth dilution method; type: functional; details: MTCC 106, 24 h
Staphylococcus aureus [11] = assay: Antibacterial activity against Staphylococcus aureus MTCC 3160 measured after 24 hrs by NCCL protocol based broth dilution method; type: functional; details: MTCC 3160, 24 h
Salmonella paratyphi [12] = assay: Antibacterial activity against Salmonella paratyphi measured after 24 hrs by NCCL protocol based broth dilution method; type: functional, Salmonella enterica subsp. enterica serovar Paratyphi A; details: Salmonella enterica
Salmonella typhi [13] = assay: Antibacterial activity against Salmonella typhi measured after 24 hrs by NCCL protocol based broth dilution method; type: functional, Salmonella enterica subsp. enterica serovar Typhi; details: Salmonella enterica
Klebsiella pneumoniae [14] = assay: Antibacterial activity against Klebsiella pneumoniae MTCC 3384 measured after 24 hrs by NCCL protocol based broth dilution method; type: functional; details: MTCC 3384, 24 h
Candida albicans [15] = assay: Antifungal activity against Candida albicans MTCC 3017 measured after 48 hrs by NCCL protocol based broth dilution method; type: functional; details: MTCC 3017, 48 h
Aspergillus fumigatus [16] = assay: Antifungal activity against Aspergillus fumigatus MTCC 343 measured after 48 hrs by NCCL protocol based broth dilution method; type: functional; details: MTCC 343, 48 h

Row | SMILES | zone of inhibition at 100 µg/disc (Streptococcus mutans [1]) [mm] | zone of inhibition at 100 µg/disc (Micrococcus luteus [2]) [mm] | zone of inhibition at 100 µg/disc (Staphylococcus aureus [3]) [mm] | zone of inhibition at 100 µg/disc (Salmonella paratyphi [4]) [mm] | zone of inhibition at 100 µg/disc (Salmonella typhi [5]) [mm] | zone of inhibition at 100 µg/disc (Klebsiella pneumoniae [6]) [mm] | zone of inhibition at 100 µg/disc (Candida albicans [7]) [mm] | zone of inhibition at 100 µg/disc (Aspergillus fumigatus [8]) [mm] | MIC (Streptococcus mutans [9]) [µg/mL] | MIC (Micrococcus luteus [10]) [µg/mL] | MIC (Staphylococcus aureus [11]) [µg/mL] | MIC (Salmonella paratyphi [12]) [µg/mL] | MIC (Salmonella typhi [13]) [µg/mL] | MIC (Klebsiella pneumoniae [14]) [µg/mL] | MIC (Candida albicans [15]) [µg/mL] | MIC (Aspergillus fumigatus [16]) [µg/mL]
1 | CC1(C)O[C@H]2O[C@@H]3COB(c4cccc(/C=N/c5ccc(Cl)cc5)c4)O[C@@H]3[C@H]2O1 | 16 | 17 | 15 | 13 | 25 | 22 | 11 | 0 | 125 (≈ 302 µM) | 125 (≈ 302 µM) | 250 (≈ 604 µM) | 250 (≈ 604 µM) | 31.2 (≈ 75.5 µM) | 62.5 (≈ 151 µM) | 250 (≈ 604 µM) | 500 (≈ 1210 µM)
2 | CC1(C)O[C@H]2O[C@@H]3COB(c4cccc(/C=N/c5ccc(Br)cc5)c4)O[C@@H]3[C@H]2O1 | 20 | 14 | 13 | 21 | 22 | 18 | 16 | 0 | 62.5 (≈ 136 µM) | 125 (≈ 273 µM) | 250 (≈ 546 µM) | 62.5 (≈ 136 µM) | 31.2 (≈ 68.2 µM) | 62.5 (≈ 136 µM) | 125 (≈ 273 µM) | 250 (≈ 546 µM)
3 | CC1(C)O[C@H]2O[C@@H]3COB(c4cccc(/N=C/c5ccc6ccccc6c5O)c4)O[C@@H]3[C@H]2O1 | 17 | 17 | 13 | 13 | 23 | 19 | 19 | 33 | 125 (≈ 281 µM) | 62.5 (≈ 140 µM) | 125 (≈ 281 µM) | 125 (≈ 281 µM) | 62.5 (≈ 140 µM) | 62.5 (≈ 140 µM) | 62.5 (≈ 140 µM) | 31.2 (≈ 70.2 µM)
4 | COc1ccc(/N=C/c2cccc(B3OC[C@H]4O[C@@H]5OC(C)(C)O[C@@H]5[C@H]4O3)c2)cc1 | 17 | 12 | 0 | 21 | 25 | 18 | 16 | 0 | 125 (≈ 305 µM) | 250 (≈ 611 µM) | 500 (≈ 1220 µM) | 62.5 (≈ 153 µM) | 31.2 (≈ 76.4 µM) | 62.5 (≈ 153 µM) | 125 (≈ 305 µM) | 500 (≈ 1220 µM)
5 | CC(C)c1ccc(/N=C/c2cccc(B3OC[C@H]4O[C@@H]5OC(C)(C)O[C@@H]5[C@H]4O3)c2)cc1 | 16 | 12 | 13 | 21 | 23 | 16 | 16 | 0 | 125 (≈ 297 µM) | 250 (≈ 593 µM) | 250 (≈ 593 µM) | 125 (≈ 297 µM) | 62.5 (≈ 148 µM) | 125 (≈ 297 µM) | 250 (≈ 593 µM) | 500 (≈ 1190 µM)
6 | CCOc1cccc(/C=N/c2cccc(B3OC[C@H]4O[C@@H]5OC(C)(C)O[C@@H]5[C@H]4O3)c2)c1O | 16 | 15 | 0 | 14 | 24 | 12 | 18 | 21 | 125 (≈ 285 µM) | 125 (≈ 285 µM) | 250 (≈ 569 µM) | 250 (≈ 569 µM) | 31.2 (≈ 71.1 µM) | 125 (≈ 285 µM) | 62.5 (≈ 142 µM) | 62.5 (≈ 142 µM)
7 | CC1(C)O[C@H]2O[C@@H]3COB(c4cccc(N)c4)O[C@@H]3[C@H]2O1 | 17 | 13 | 12 | 13 | 11 | 12 | 13 | 0 | 125 (≈ 429 µM) | 250 (≈ 859 µM) | 500 (≈ 1720 µM) | 500 (≈ 1720 µM) | 500 (≈ 1720 µM) | 500 (≈ 1720 µM) | 500 (≈ 1720 µM) | 500 (≈ 1720 µM)
8 | Cc1ccc(/N=C/c2cccc(B(O)O)c2)cc1 | 9 | 0 | 8 | 0 | 8 | 0 | 0 | 0 | 250 (≈ 1050 µM) | 500 (≈ 2090 µM) | 500 (≈ 2090 µM) | 500 (≈ 2090 µM) | 500 (≈ 2090 µM) | 500 (≈ 2090 µM) | 500 (≈ 2090 µM) | 500 (≈ 2090 µM)
9 | Cc1ccc(/N=C/c2ccc(B3OC[C@H]4O[C@@H]5OC(C)(C)O[C@@H]5[C@H]4O3)cc2)cc1 | 17 | 12 | 17 | 0 | 18 | 24 | 12 | 0 | 125 (≈ 318 µM) | 125 (≈ 318 µM) | 125 (≈ 318 µM) | 500 (≈ 1270 µM) | 125 (≈ 318 µM) | 62.5 (≈ 159 µM) | 250 (≈ 636 µM) | 500 (≈ 1270 µM)
10 | Cc1ccccc1B1OC[C@H]2O[C@@H]3OC(C)(C)O[C@@H]3[C@H]2O1 | 9 | 6 | 7 | 6 | 7 | 6 | 7 | 6 | 125 (≈ 431 µM) | 250 (≈ 862 µM) | 250 (≈ 862 µM) | 125 (≈ 431 µM) | 250 (≈ 862 µM) | 250 (≈ 862 µM) | 500 (≈ 1720 µM) | 500 (≈ 1720 µM)
